From BindingDB's records for doi:10.1016/j.bmcl.2009.04.039 (Johnson & Johnson Pharmaceutical Research & Development, 2009)

Biological target: T1, Signal transducer and activator of transcription 5A (Homo sapiens, UniProt P42229)
T1 sequence (P42229 whole entry): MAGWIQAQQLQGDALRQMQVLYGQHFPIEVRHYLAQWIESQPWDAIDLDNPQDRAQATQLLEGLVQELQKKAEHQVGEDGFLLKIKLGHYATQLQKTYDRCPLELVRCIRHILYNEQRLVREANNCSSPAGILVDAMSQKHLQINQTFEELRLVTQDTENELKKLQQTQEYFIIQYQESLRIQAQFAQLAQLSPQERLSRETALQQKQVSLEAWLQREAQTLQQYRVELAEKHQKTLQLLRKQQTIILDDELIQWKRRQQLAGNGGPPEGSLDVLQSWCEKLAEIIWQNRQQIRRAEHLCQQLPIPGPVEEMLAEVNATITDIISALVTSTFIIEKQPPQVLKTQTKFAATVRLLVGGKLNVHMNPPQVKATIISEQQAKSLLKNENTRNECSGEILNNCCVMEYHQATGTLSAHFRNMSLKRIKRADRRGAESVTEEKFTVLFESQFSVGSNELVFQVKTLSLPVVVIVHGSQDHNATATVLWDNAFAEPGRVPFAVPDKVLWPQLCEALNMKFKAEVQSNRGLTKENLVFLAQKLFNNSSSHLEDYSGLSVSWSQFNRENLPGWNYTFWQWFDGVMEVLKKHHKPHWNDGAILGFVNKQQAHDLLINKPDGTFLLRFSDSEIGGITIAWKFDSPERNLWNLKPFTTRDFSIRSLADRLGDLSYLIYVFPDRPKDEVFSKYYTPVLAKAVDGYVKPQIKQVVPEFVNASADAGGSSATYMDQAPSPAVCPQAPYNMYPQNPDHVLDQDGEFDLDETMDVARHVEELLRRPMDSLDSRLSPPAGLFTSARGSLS
Test: Inhibition of STAT5 phosphorylation in IL2-stimulated healthy human T cells by Western blotting

IC50: 689 nM
SMILES: O=C1NCc2c1c1c3ccccc3n3c1c1c2c2ccccc2n1C[C@@H](O)[C@@H](O)C3 [12,13-(2,3-Cis-dihyroxy-1,4-butyl)-6,7,12,13-tetrahydro-5-oxo-5H-indolo[2,3-a]pyrrolo[3,4-c]carbazole]
